Assay results published in US20220073532A1, “INHIBITORS OF CGAS ACTIVITY AS THERAPEUTIC AGENTS” (BELLBROOK LABS, LLC, priority 2019, published 2022).
Like-named read-outs stand apart in the source and are kept apart here.

Target: cGAS (Homo sapiens, UniProt Q8N884)
Test: cGAS enzymatic assay (FP/TR-FRET detection of cGAMP)
Assay type: biochemical
Parameters: The cGAS assay was used to screen 100,000 compounds with full-length human cGAS; 6xHis; made in house
Conditions: cGAS (30 nM)
Description: Some exemplary compounds of the disclosure were tested for inhibition of cGAS (30 nM). The results are provided in Table 1 where “A” indicates an IC50 of less than 100 nM, “B” indicates an IC50 of greater than 100 nM and less than 500 nM, “C” indicates an IC50 of greater than 500 nM and less than 1 μM, “D” indicates an IC50 of greater than 1 μM and less than 10 μM, and “E” indicates an IC50 of greater than 10 μM.
A homogenous cGAS enzymatic assay was developed with fluorescence polarization (FP) and time-resolved Forster resonance energy transfer (TR-FRET) readouts (FIG. 2A-2D). The cGAS assay was used to screen 100,000 compounds with full-length human cGAS (FIG. 2E), resulting in the identification of the novel chemotype of the disclosure, two of which are further developed in a structure-driven hit-to-lead study (Table 3, below). The assay performance was robust, as indicated by respective Z and Z′ values of 0.59 and 0.63 in the screen; compounds with polarization values greater than three SDs from the mean were considered hits; a scatterplot from 10 plates (3,200 compounds) is shown in FIG. 2D.
Biochemical and biophysical analysis: Potency and MOA studies, including Mn^2+ sensitivity, are performed using the cGAS enzymatic assay. Dose response experiments are used to determine IC50 values under basal conditions (5 mM MgCl2, 100 μM ATP/GTP), and with the addition of physiological levels of Mn (0.2 mM) using human and mouse cGAS. Ligand optimization is driven by potency with the human enzyme; potency with mouse cGAS informs selection of an appropriate disease model for efficacy studies. Competition with ATP and GTP is assessed by comparing basal IC50 values to those in the presence of saturating ATP or GTP, and subsequently confirmed by measuring velocity vs. substrate at varying ATP or GTP levels. Inhibitor residence times (1/koff) are used as a key parameter for prioritizing compounds and driving SAR, because a longer residence time often results from an allosteric mechanism, and can also correlate with improved cellular activity. The cGAS enzymatic assay is used with the jump dilution method to measure residence times (inhibitor dissociation rates), as described for kinases using the very similar ADP assay. Biophysical methods, including SPR and TSA, are used as orthologous methods for residence time measurements and kd estimates.

[1] = with Mn^2+, read-out: Inhibition cGAS + Mn^2+

Sequence of cGAS (Q8N884 whole entry): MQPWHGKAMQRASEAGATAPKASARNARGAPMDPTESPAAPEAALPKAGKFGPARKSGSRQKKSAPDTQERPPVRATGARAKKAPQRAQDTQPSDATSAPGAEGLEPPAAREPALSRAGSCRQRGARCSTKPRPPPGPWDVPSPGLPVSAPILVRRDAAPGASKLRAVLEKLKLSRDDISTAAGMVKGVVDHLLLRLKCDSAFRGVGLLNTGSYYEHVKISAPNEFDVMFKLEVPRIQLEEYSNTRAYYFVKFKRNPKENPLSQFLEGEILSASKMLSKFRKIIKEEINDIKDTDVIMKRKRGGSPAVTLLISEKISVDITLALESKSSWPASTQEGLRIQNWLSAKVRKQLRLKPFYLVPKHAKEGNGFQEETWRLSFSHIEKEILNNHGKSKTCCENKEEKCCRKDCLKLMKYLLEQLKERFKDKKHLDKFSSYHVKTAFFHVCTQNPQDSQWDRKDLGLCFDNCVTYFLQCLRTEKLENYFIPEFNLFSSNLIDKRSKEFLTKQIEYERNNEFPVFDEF

| SMILES | IC50 [1] [µM] | IC50 (read-out: Inhibition cGAS) [µM] | Inhibition cGAS |
| --- | --- | --- | --- |
| Cc1nc(N2C[C@@H](Nc3n[nH]cc3-c3ccccc3)CC2C(=O)O)c2oc3cc(F)ccc3c2n1 (stereo in doubt) [Compound 56, (2R,4S)-1-(7-fluoro-2-methylbenzofuro[3,2-d]pyrimidin-4-yl)-4-((4-phenyl-1H-pyrazol-3-yl)amino)pyrrolidine-2-carboxylic acid] | 1 to 10 | 0.5 to 1 | – |
| Cc1nc(NCC(=O)O)c2oc3ccccc3c2n1 [Compound 2, (2-methylbenzofuro[3,2-d]pyrimidin-4-yl)glycine] | > 10 | 1 to 10 | – |
| C[C@H](Nc1nc(-c2ccccc2)nc2c1oc1ccccc12)C(=O)O [Compound 3, (2-phenylbenzofuro[3,2-d]pyrimidin-4-yl)-L-alanine] | > 10 | 1 to 10 | – |
| O=C(O)CNc1nc(-c2ccccc2)nc2c1oc1ccccc12 [Compound 5, (2-phenylbenzofuro[3,2-d]pyrimidin-4-yl)glycine] | > 10 | 1 to 10 | – |
| CCc1nc(N(C)CC(=O)O)c2oc3ccccc3c2n1 [Compound 16, N-(2-ethylbenzofuro[3,2-d]pyrimidin-4-yl)-N-methylglycine] | 1 to 10 | 1 to 10 | – |
| CCc1nc(N(C)[C@@H](C)C(=O)O)c2oc3ccccc3c2n1 [Compound 17, N-(2-ethylbenzofuro[3,2-d]pyrimidin-4-yl)-N-methyl-L-alanine] | > 10 | 1 to 10 | – |
| C[C@H]1C[C@@H](C(=O)O)N(c2nc(-c3ccccc3)nc3c2oc2ccccc23)C1 [Compound 21, (2S,4S)-4-methyl-1-(2-phenylbenzofuro[3,2-d]pyrimidin-4-yl)pyrrolidine-2-carboxylic acid] | > 10 | 1 to 10 | – |
| Cc1nc(N[C@@H](CCC(=O)O)C(=O)O)c2oc3ccccc3c2n1 [Compound 24, (2-methylbenzofuro[3,2-d]pyrimidin-4-yl)glutamic acid] | > 10 | 1 to 10 | – |
| Cc1nc(N2C[C@@H](Cc3nn[nH]n3)C[C@H]2C(=O)O)c2oc3ccccc3c2n1 [Compound 25, (2S,4R)-4-((1H-tetrazol-5-yl)methyl)-1-(2-methylbenzofuro[3,2-d]pyrimidin-4-yl)pyrrolidine-2-carboxylic acid] | – | < 0.1 | – |
| Cc1nc(N2C[C@@H](Nc3cc[nH]n3)C[C@H]2C(=O)O)c2oc3ccccc3c2n1 [Compound 26, (2S,4S)-4-((1H-pyrazol-3-yl)amino)-1-(2-methylbenzofuro[3,2-d]pyrimidin-4-yl)pyrrolidine-2-carboxylic acid] | – | 0.1 to 0.5 | – |
| Cc1nc(N2C[C@@H](Nc3n[nH]cc3C)C[C@H]2C(=O)O)c2oc3ccccc3c2n1 [Compound 27, (2S,4S)-4-((4-methyl-1H-pyrazol-3-yl)amino)-1-(2-methylbenzofuro[3,2-d]pyrimidin-4-yl)pyrrolidine-2-carboxylic acid] | – | 0.1 to 0.5 | – |
| Cc1nc(N2C[C@@H](NC(=O)C(C)(C)c3ccncc3)C[C@H]2C(=O)O)c2oc3ccccc3c2n1 [Compound 29, (2S,4S)-4-(2-methyl-2-(pyridin-4-yl)propanamido)-1-(2-methylbenzofuro[3,2-d]pyrimidin-4-yl)pyrrolidine-2-carboxylic acid] | – | 0.1 to 0.5 | – |
| Cc1nc(N2C[C@@H](NC(=O)Cc3cc[nH]n3)C[C@H]2C(=O)O)c2oc3ccccc3c2n1 [Compound 31, (2S,4S)-4-(2-(1H-pyrazol-3-yl)acetamido)-1-(2-methylbenzofuro[3,2-d]pyrimidin-4-yl)pyrrolidine-2-carboxylic acid] | – | – | B, D |
| Cc1nc(N2C[C@@H](NC(=O)Cc3cn[nH]c3)C[C@H]2C(=O)O)c2oc3ccccc3c2n1 [Compound 32, (2S,4S)-4-(2-(1H-pyrazol-4-yl)acetamido)-1-(2-methylbenzofuro[3,2-d]pyrimidin-4-yl)pyrrolidine-2-carboxylic acid] | – | 0.5 to 1 | – |
| Cc1nc(N2C[C@@H](NC(=O)Cc3ccc(N)nc3)C[C@H]2C(=O)O)c2oc3ccccc3c2n1 [Compound 33, (2S,4S)-4-(2-(6-aminopyridin-3-yl)acetamido)-1-(2-methylbenzofuro[3,2-d]pyrimidin-4-yl)pyrrolidine-2-carboxylic acid] | – | 0.1 to 0.5 | – |
| Cc1nc(N2C[C@@H](NC(=O)Cc3cccnc3)C[C@H]2C(=O)O)c2oc3ccccc3c2n1 [Compound 34, (2S,4S)-1-(2-methylbenzofuro[3,2-d]pyrimidin-4-yl)-4-(2-(pyridin-3-yl)acetamido)pyrrolidine-2-carboxylic acid] | – | 0.5 to 1 | – |
| CNC(=O)C[C@H]1C[C@@H](C(=O)O)N(c2nc(C)nc3c2oc2ccccc23)C1 [Compound 35, (2S,4R)-4-(2-(methylamino)-2-oxoethyl)-1-(2-methylbenzofuro[3,2-d]pyrimidin-4-yl)pyrrolidine-2-carboxylic acid] | – | 0.5 to 1 | – |
| Cc1nc(N2C[C@@H](NC(=O)Cc3ncc[nH]3)C[C@H]2C(=O)O)c2oc3ccccc3c2n1 [Compound 36, (2S,4S)-4-(2-(1H-imidazol-2-yl)acetamido)-1-(2-methylbenzofuro[3,2-d]pyrimidin-4-yl)pyrrolidine-2-carboxylic acid] | – | 0.5 to 1 | – |

The next lines start with the values.

| IC50 [1] [µM] | IC50 (read-out: Inhibition cGAS) [µM] | Inhibition cGAS | SMILES |
| --- | --- | --- | --- |
| > 10 | 1 to 10 | – | O=C(O)[C@@H]1CCCN1c1ncnc2c1oc1ccccc12 [Compound 4, benzofuro[3,2-d]pyrimidin-4-yl-L-proline] |
| > 10 | > 10 | – | O=C(O)C1CCCN(c2ncnc3c2oc2ccccc23)C1 (centres unmarked) [Compound 6, 1-(benzofuro[3,2-d]pyrimidin-4-yl)piperidine-3-carboxylic acid] |
| 1 to 10 | 1 to 10 | – | CCc1nc(N2CCC[C@H]2C(=O)O)c2oc3ccccc3c2n1 [Compound 7, (2-ethylbenzofuro[3,2-d]pyrimidin-4-yl)-L-proline] |
| > 10 | 1 to 10 | – | O=C(O)[C@@H]1CCCN1c1nc(C2CC2)nc2c1oc1ccccc12 [Compound 8, (2-cyclopropylbenzofuro[3,2-d]pyrimidin-4-yl)-L-proline] |
| > 10 | 1 to 10 | – | CC(C)c1nc(N2CCC[C@H]2C(=O)O)c2oc3ccccc3c2n1 [Compound 9, (2-isopropylbenzofuro[3,2-d]pyrimidin-4-yl)-L-proline] |
| > 10 | > 10 | – | O=C(O)[C@@H]1CCCN1c1nc(C2CCCCC2)nc2c1oc1ccccc12 [Compound 10, (2-cyclohexylbenzofuro[3,2-d]pyrimidin-4-yl)-L-proline] |
| > 10 | 1 to 10 | – | O=C(O)[C@@H]1CCCN1c1nc(C2CCC2)nc2c1oc1ccccc12 [Compound 11, (2-cyclobutylbenzofuro[3,2-d]pyrimidin-4-yl)-L-proline] |
| > 10 | > 10 | – | O=C(O)[C@@H]1CCCN1c1nc(C2CCCC2)nc2c1oc1ccccc12 [Compound 12, (2-cyclopentylbenzofuro[3,2-d]pyrimidin-4-yl)-L-proline] |
| > 10 | > 10 | – | O=C(O)[C@@H]1CCCN1c1nc(-c2ccccc2)nc2c1oc1ccccc12 [Compound 13, (2-phenylbenzofuro[3,2-d]pyrimidin-4-yl)-L-proline] |
| > 10 | > 10 | – | CCc1nc(N2CCC[C@H]2C(=O)NS(=O)(=O)N(C)C)c2oc3ccccc3c2n1 [Compound 14, (S)-N-(N,N-dimethylsulfamoyl)-1-(2-ethylbenzofuro[3,2-d]pyrimidin-4-yl)pyrrolidine-2-carboxamide] |
| > 10 | > 10 | – | O=C(O)[C@@H]1CCCN1c1nc(-c2ccncc2)nc2c1oc1ccccc12 [Compound 18, (2-(pyridin-4-yl)benzofuro[3,2-d]pyrimidin-4-yl)-L-proline] |
| 1 to 10 | 1 to 10 | – | CCc1nc(N2CC[C@H]2C(=O)O)c2oc3ccccc3c2n1 [Compound 19, (S)-1-(2-ethylbenzofuro[3,2-d]pyrimidin-4-yl)azetidine-2-carboxylic acid] |
| 1 to 10 | 0.5 to 1 | – | COc1nc(N2CCC[C@H]2C(=O)O)c2oc3ccccc3c2n1 [Compound 20, (2-methoxybenzofuro[3,2-d]pyrimidin-4-yl)-L-proline] |
| 1 to 10 | 1 to 10 | – | N#Cc1nc(N2CCC[C@H]2C(=O)O)c2oc3ccccc3c2n1 [Compound 22, (2-cyanobenzofuro[3,2-d]pyrimidin-4-yl)-L-proline] |
| > 10 | 1 to 10 | – | CO[C@H]1C[C@@H](C(=O)O)N(c2nc(C)nc3c2oc2ccccc23)C1 [Compound 23, (2S,4S)-4-methoxy-1-(2-methylbenzofuro[3,2-d]pyrimidin-4-yl)pyrrolidine-2-carboxylic acid] |
